# Data published in patent US7700088B2, “Interleukin-9 mutein peptides” (Genaera Corporation, priority 1995, dated 2010).
# “Also recorded” adds a separate entry of the source.
# Experiments:
# [1] = system: IL-9 mediated MO7e proliferation; experiment: Inhibition of IL-9 mediated MO7e proliferation (acid phosphatase cell proliferation assay); type: cell-based, human; details: for inhibition of cellular growth induced by IL-9 (antagonism of IL-9): peptides incubated with MO7e cells, compared with control (no peptide); for inhibition of cellular growth induced by IL-9: tyrophostins incubated with MO7e cells, compared with control (no treatment)
# Description: Cell lines were used to assess the function of peptides, aminosterols, tyrophostins, rhIL-9, rmIL-9, and recombinant mutant forms of these proteins as well as all other compounds that block IL-9 function. A proliferative response was measured and compared to each of the other cytokines, variant or mutant forms of Il-9, or IL-9 antagonists. In addition, compounds were tested for their ability to antagonize the baseline proliferative response. Once a baseline proliferative response was established for a cytokine a statistically significant loss of response in assays repeated three times in triplicate was considered evidence for antagonism. A true antagonistic response was differentiated from cellular toxicity by direct observation, trypan blue staining (a technique well known to one of normal skill in the art), and loss of acid phosphatase activity. Specificity was assessed for the antagonist by evaluating whether the activity was substantially expressed against other proliferative agents such as steel factor, interleukin 3, or interleukin 4.
# The MO7e line is a human megakaryoblastic cell line, cultured in RPMI 1640 (GIBCO/BRL, Gaithersburg, Md.), 20% Fetal Bovine Serum (Hyclone) and 10 ng/ml IL-3 (R&D Systems, Minneapolis, Minn.). The MJ line is a cytokine independent human lymphoblastoid cell line grown in RPMI 1640 (GIBCO/BRL) K562 is a human erthroleukemia cell line, cultured in RPMI 1640 (GIBCO/BRL) and 10% fetal bovine serum (Hyclone). C8166-45 is a IL-9 receptor bearing line, cultured in RPMI 1640 GIBCO/BRL) and 10% Fetal bovine serum (Hyclone). All the cell lines respond to cytokines including IL-9. The cell lines are fed and reseeded at 2×10^5 cells/ml every 72 hours.
# The cells were centrifuged for 10 minutes at 2000 rpm and resuspended in RPMI 1640 with 0.5% Bovine Serum Albumin (GIBCO/BRL, Gaithersburg, Md.) and insulin-transferrin-selenium (ITS) cofactors (GIBCO/BRL, Gaithersburg, Md.). Cells were counted using a hemocytometer and diluted to a concentration of 1×10^5 cells/ml and plated in a 96-well microtiter plate. Each well contained 0.15 or 0.2 ml giving a final concentration of 2×10^4 cells per well.
# MO7e cells were stimulated with 50 ng/ml Stem Cell Factor (SCF) (R&D Systems, Minneapolis, Minn.) alone, 50 ng/ml SCF plus 50 ng/ml IL-3 (R&D Systems, Minneapolis, Minn.), or 50 ng/ml SCF plus 50 ng/ml IL-9. A control was included which contains cells and basal media only. Serial dilutions of test compounds (i.e., recombinant IL-9 proteins, peptides, small molecules) were added to each test condition in triplicate. The MJ cell line was used as an independent control for nonspecific cytotoxicity. Cultures were incubated for 72-96 hours at 37° C. in 5% CO2.
# Cell proliferation was assayed using the Abacus Cell Proliferation Kit (Clontech, Palo Alto, Calif.) which determines the amount of intracellular acid phosphatase present as an indication of cell number. The substrate p-nitrophenyl phosphate (pNPP) was converted by acid phosphatase to p-nitrophenol which was measured as an indicator of enzyme concentration. pNPP was added to each well and incubated at 37° C. for one hour. 1N sodium hydroxide was then added to stop the enzymatic reaction, and the amount of p-nitrophenol was quantified using a Dynatech 2000 plate reader (Dynatech Laboratories, Chantilly, Va.) at 410 nm wavelength. Standard curves that compare cell number with optical absorbance were used to determine the linear range of the assay. Assay results were only used when absorbance measurements are within the linear range of the assay.
# Soluble IL-9 receptor = biological target: T1, Soluble IL-9 receptor (Homo sapiens, UniProt Q01113); experiment: Binding of recombinant IL-9 forms to soluble IL-9 receptor (anti-FLAG immunoprecipitation, Western blot); details: 0.5 micrograms soluble receptor (amino acids 44 to 270), PBS, room temperature, 30 minutes
# T1 construct: Soluble IL-9 receptor including amino acids 44 to 270 (R&D Systems); purchased R&D Systems
# T1 sequence (Q01113 44-270): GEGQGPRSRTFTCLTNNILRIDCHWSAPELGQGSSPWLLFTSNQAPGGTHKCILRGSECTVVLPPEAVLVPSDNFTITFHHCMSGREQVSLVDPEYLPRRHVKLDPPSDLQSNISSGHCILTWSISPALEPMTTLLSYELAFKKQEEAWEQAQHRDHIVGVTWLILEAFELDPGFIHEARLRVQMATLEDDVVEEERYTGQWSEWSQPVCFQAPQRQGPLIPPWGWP
# Description: Soluble IL-9 receptor including amino acids 44 to 270 (R&D Systems) was incubated with different forms of human recombinant IL-9. Varying amounts of FlagMet117 and FlagThr117 (described in Example 7) were incubated in PBS at room temperature for 30 minutes with 0.5 micrograms of soluble receptor. EBC buffer (50 mM Tris pH 7.5; 0.1 M NaCl; 0.5% NP40) was added (300 microliters) was added along with 1 microgram of anti-FLAG monoclonal antibody (IBI) and incubated for 1 hour on ice. Forty microliters of protein A sepharose solution was added to each sample and mixed for 1 hour at 4° C. Samples were centrifuged for 1 minute 11,000×G and pellets were washed 4 times with 500 microliters of EBC. Pellets were dissolved in 26 microliters of 2×SDS buffer, boiled for 4 minutes, and electrophoresed through an 18% SDS polyacrylamide gel. Western blots were performed as described in Example 15 except the blots were probed with an anti-IL-9 receptor antibody (R&D Systems).
Compound,inhibition of cellular growth induced by IL-9 (antagonism of IL-9) [1],also measured
"KP-23: peptide derived from IL-9 exon 5, SEQ ID NO: 15, spanning the codon 117 polymorphism (EQPANQTTAGNALTFLKS)",antagonistic properties,
"KP-16: antagonistic peptide derived from IL-9 exon 4, IL-9 residues 43-60, SEQ. ID NO: 13 (SDNATRPAFSERLSQMTN)",considerable inhibitory activity; also recorded: act as IL-9 antagonists,
IL-9 FlagMet117: purified recombinant human FLAG IL-9 fusion protein with methionine at position 117,,binding to soluble IL-9 receptor (Soluble IL-9 receptor): bound to the soluble receptor
"KP-24: peptide derived from IL-9 exon 5, SEQ ID NO: 16, spanning the codon 117 polymorphism (TAGNALTFLKSLLEIFQK; Residues 99-116 of Mature hIL-9 Receptor)",antagonistic properties,
"KP-20: antagonistic peptide derived from IL-9 exon 4, IL-9 residues 71-90, SEQ. ID NO: 14 (FSRVKKSVEVLKNNKAPY)",considerable inhibitory activity; also recorded: act as IL-9 antagonists,
"N#C/C(=C\c1ccc(O)c(O)c1)C(=O)NCCCCc1ccccc1 [Tyrophostin B56, reference compound]",,inhibition of cellular growth induced by IL-9 [1]: greatest inhibition
"N#C/C(=C\c1ccc(O)c(O)c1)C(=O)NCCCc1ccccc1 [Tyrophostin B46, reference compound]",,inhibition of cellular growth induced by IL-9 [1]: greatest inhibition
